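All cell lines were grown in 96-well plates and treated with compound for 48 hours. TGI denotes the concentration required for complete inhibition of growth.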
Tests used:
Assay in all cases: NCI-60 cell line screen, 48 h
UACC-257 melanoma = test system: UACC-257 melanoma
NCI-H522 lung = test system: NCI-H522 lung
SN12C renal = test system: SN12C renal
DMS 114 small cell lung = test system: DMS 114 small cell lung
786-0 renal = test system: 786-0 renal
DLD-1 colon = test system: DLD-1 colon
M19-MEL melanoma = test system: M19-MEL melanoma
EKVX NSCLC = test system: EKVX NSCLC
SNB-75 CNS = test system: SNB-75 CNS
OVCAR-3 ovarian = test system: OVCAR-3 ovarian
HCT-15 colon = test system: HCT-15 colon
NCI-H23 lung = test system: NCI-H23 lung
HOP-62 NSCLC = test system: HOP-62 NSCLC
A498 renal = test system: A498 renal
SK-OV-3 ovarian = test system: SK-OV-3 ovarian
NCI-H460 lung = test system: NCI-H460 lung
SNB-78 CNS = test system: SNB-78 CNS
HT29 colon = test system: HT29 colon
RPMI-8226 leukemia = test system: RPMI-8226 leukemia
SF-268 CNS = test system: SF-268 CNS
OVCAR-8 ovarian = test system: OVCAR-8 ovarian
SK-MEL-5 melanoma = test system: SK-MEL-5 melanoma
K-562 leukemia = test system: K-562 leukemia
HCT-116 colon = test system: HCT-116 colon
CAKI-1 renal = test system: CAKI-1 renal
KM12 colon = test system: KM12 colon
HOP-92 NSCLC = test system: HOP-92 NSCLC
OVCAR-5 ovarian = test system: OVCAR-5 ovarian
KM20L2 colon = test system: KM20L2 colon
NCI-H226 lung = test system: NCI-H226 lung
SF-539 CNS = test system: SF-539 CNS
HCC-2998 colon = test system: HCC-2998 colon
HOP-18 NSCLC = test system: HOP-18 NSCLC
COLO 205 colon = test system: COLO 205 colon
DMS 273 small cell lung = test system: DMS 273 small cell lung
SW-620 colon = test system: SW-620 colon
LOX IMVI melanoma = test system: LOX IMVI melanoma
CCRF-CEM leukemia = test system: CCRF-CEM leukemia
LXFL 529 NSCLC = test system: LXFL 529 NSCLC
ACHN renal = test system: ACHN renal
HL-60(TB) leukemia = test system: HL-60(TB) leukemia
XF 498 CNS = test system: XF 498 CNS
SK-MEL-2 melanoma = test system: SK-MEL-2 melanoma
IGROV1 ovarian = test system: IGROV1 ovarian
OVCAR-4 ovarian = test system: OVCAR-4 ovarian
TK-10 renal = test system: TK-10 renal
SK-MEL-28 melanoma = test system: SK-MEL-28 melanoma
U251 CNS = test system: U251 CNS
A549 NSCLC = test system: A549 NSCLC
UACC-62 melanoma = test system: UACC-62 melanoma
MALME-3M melanoma = test system: MALME-3M melanoma
M14 melanoma = test system: M14 melanoma
UO-31 renal = test system: UO-31 renal
RXF 393 renal = test system: RXF 393 renal
SNB-19 CNS = test system: SNB-19 CNS
MOLT-4 leukemia = test system: MOLT-4 leukemia
SF-295 CNS = test system: SF-295 CNS
SR leukemia = test system: SR leukemia

Measured: TGI

Cn1c(=O)c(C(=O)NC(=O)NCCCCCOC(=O)CCCCCCCCCCC(=O)OCCCCCNC(=O)NC(=O)c2cn(Cc3ccccc3)c(=O)n(C)c2=O)cn(Cc2ccccc2)c1=O
> 100 µM: UACC-257 melanoma | NCI-H522 lung | SN12C renal | DMS 114 small cell lung | 786-0 renal | DLD-1 colon | M19-MEL melanoma | EKVX NSCLC | SNB-75 CNS | OVCAR-3 ovarian | HCT-15 colon | NCI-H23 lung | HOP-62 NSCLC | A498 renal | SK-OV-3 ovarian | NCI-H460 lung | SNB-78 CNS | HT29 colon | RPMI-8226 leukemia | SF-268 CNS | OVCAR-8 ovarian | SK-MEL-5 melanoma | K-562 leukemia | HCT-116 colon | CAKI-1 renal | KM12 colon | HOP-92 NSCLC | OVCAR-5 ovarian | KM20L2 colon | NCI-H226 lung | SF-539 CNS | HCC-2998 colon | HOP-18 NSCLC | COLO 205 colon | DMS 273 small cell lung | SW-620 colon | LOX IMVI melanoma | CCRF-CEM leukemia | LXFL 529 NSCLC | ACHN renal | HL-60(TB) leukemia | XF 498 CNS | SK-MEL-2 melanoma | IGROV1 ovarian | OVCAR-4 ovarian | TK-10 renal | SK-MEL-28 melanoma | U251 CNS | A549 NSCLC | UACC-62 melanoma | MALME-3M melanoma | M14 melanoma | UO-31 renal | RXF 393 renal | SNB-19 CNS

Cc1ccc(C=NC23CC4CC(CC(C4)C2)C3)cc1
> 100 µM: UACC-257 melanoma | SN12C renal | DMS 114 small cell lung | 786-0 renal | M19-MEL melanoma | EKVX NSCLC | SNB-75 CNS | OVCAR-3 ovarian | HCT-15 colon | NCI-H23 lung | HOP-62 NSCLC | A498 renal | SK-OV-3 ovarian | NCI-H460 lung | SNB-78 CNS | HT29 colon | RPMI-8226 leukemia | SF-268 CNS | OVCAR-8 ovarian | SK-MEL-5 melanoma | K-562 leukemia | MOLT-4 leukemia | HCT-116 colon | CAKI-1 renal | KM12 colon | OVCAR-5 ovarian | KM20L2 colon | NCI-H226 lung | SF-539 CNS | HCC-2998 colon | COLO 205 colon | DMS 273 small cell lung | SW-620 colon | LOX IMVI melanoma | ACHN renal | HL-60(TB) leukemia | XF 498 CNS | SK-MEL-2 melanoma | IGROV1 ovarian | OVCAR-4 ovarian | TK-10 renal | SK-MEL-28 melanoma | U251 CNS | A549 NSCLC | SF-295 CNS | MALME-3M melanoma | M14 melanoma | SR leukemia | RXF 393 renal
